Experimental findings from patent US10758534B2 (Vertex Pharmaceuticals Incorporated, priority 2014, dated 2020) are described below.

The target in this assay is T1, F508del (Homo sapiens, UniProt P13569, DEL508-508).
T1 construct: expressed in transfected cells
T1 sequence (P13569 with tags, fused parts or gaps DEL508-508): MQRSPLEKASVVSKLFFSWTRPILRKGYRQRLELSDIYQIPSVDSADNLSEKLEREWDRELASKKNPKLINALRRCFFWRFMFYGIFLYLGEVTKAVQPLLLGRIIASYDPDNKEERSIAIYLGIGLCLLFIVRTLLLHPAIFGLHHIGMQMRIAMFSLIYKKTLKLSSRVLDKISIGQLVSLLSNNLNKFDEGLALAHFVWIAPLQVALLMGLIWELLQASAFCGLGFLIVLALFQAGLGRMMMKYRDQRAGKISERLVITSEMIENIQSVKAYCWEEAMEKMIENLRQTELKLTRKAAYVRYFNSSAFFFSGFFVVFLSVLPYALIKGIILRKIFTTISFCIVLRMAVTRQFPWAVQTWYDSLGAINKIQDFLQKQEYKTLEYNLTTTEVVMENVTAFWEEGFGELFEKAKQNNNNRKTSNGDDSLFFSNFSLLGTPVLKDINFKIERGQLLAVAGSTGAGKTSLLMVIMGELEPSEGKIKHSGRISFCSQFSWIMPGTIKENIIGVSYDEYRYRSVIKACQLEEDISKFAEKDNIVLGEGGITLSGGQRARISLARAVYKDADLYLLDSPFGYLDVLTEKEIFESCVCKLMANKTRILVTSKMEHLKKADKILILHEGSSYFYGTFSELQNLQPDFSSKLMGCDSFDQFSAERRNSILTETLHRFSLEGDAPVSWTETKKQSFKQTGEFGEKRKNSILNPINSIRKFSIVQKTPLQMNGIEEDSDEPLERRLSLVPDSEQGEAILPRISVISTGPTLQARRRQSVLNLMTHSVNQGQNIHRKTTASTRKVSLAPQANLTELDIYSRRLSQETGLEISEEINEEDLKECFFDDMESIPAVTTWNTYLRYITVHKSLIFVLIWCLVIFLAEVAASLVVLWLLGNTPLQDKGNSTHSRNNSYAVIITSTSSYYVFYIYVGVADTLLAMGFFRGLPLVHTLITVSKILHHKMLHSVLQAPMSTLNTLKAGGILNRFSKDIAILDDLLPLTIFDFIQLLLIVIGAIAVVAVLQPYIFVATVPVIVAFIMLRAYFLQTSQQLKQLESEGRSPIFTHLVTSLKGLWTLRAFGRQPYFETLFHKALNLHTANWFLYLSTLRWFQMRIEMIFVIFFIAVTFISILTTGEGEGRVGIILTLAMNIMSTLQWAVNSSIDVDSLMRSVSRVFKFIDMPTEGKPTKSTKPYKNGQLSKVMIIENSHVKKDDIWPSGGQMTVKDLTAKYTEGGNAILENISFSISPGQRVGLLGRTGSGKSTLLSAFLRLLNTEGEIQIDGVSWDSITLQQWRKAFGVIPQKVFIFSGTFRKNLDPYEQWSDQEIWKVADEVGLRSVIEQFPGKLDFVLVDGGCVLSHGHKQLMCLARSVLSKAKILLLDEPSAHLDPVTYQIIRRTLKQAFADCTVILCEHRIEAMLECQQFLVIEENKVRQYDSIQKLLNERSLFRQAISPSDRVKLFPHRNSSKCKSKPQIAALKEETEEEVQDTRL
The assay is described as follows: Protocol 1: membrane potential optical assay (FLIPR III, voltage sensing dye), identification of potentiator compounds. It is filed as cell-based. To be noted: Table 3, compounds of Table 1. The method in brief: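 NIH3T3 F508del cells, 27° C × 24 hrs; compound/DMSO pretreat → redistribution dye load → single forskolin addition with Cl⁻ gradient (gluconate-substituted bath, HEPES pH 7.4). FLIPR III membrane-potential fluorescence read.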
As to `CCOC1CCN(c2nc(C(C)(C)C)ccc2C(=O)NS(=O)(=O)c2cccc(N)n2)CC1` [Compound 1200, N-[(6-amino-2-pyridyl)sulfonyl]-6-tert-butyl-2-(4-ethoxy-1-piperidyl)pyridine-3-carboxamide], the EC30 result was “++ (“++” means between 3 uM and 10 uM)”.

Regarding `Cc1cccc(C)c1Cn1nc(C(C)(C)C)cc1C(=O)NS(=O)(=O)c1ccco1` [Compound 1468, 5-tert-butyl-2-[(2,6-dimethylphenyl)methyl]-N-(2-furylsulfonyl)pyrazole-3-carboxamide], the EC30 entry is reported as “+++ (“+++” means <3 uM)”. To `CC(C)COc1cc(F)cc(-c2ccc(C(=O)NS(=O)(=O)c3ccn[nH]3)c(N3CCC4(CCC4)CC3)n2)c1` [Compound 944, 2-(7-azaspiro[3.5]nonan-7-yl)-6-(3-fluoro-5-isobutoxy-phenyl)-N-(1H-pyrazol-5-ylsulfonyl)pyridine-3-carboxamide] belongs “+++ (“+++” means <3 uM)”; to `CC(C)COc1cc(F)cc(-c2ccc(C(=O)NS(=O)(=O)c3cccc(N)n3)c(N3C[C@@H]4CC[C@H]3C4)n2)c1` [Compound 1180, N-[(6-amino-2-pyridyl)sulfonyl]-2-[(1R,4S)-3-azabicyclo[2.2.1]heptan-3-yl]-6-(3-fluoro-5-isobutoxy-phenyl)pyridine-3-carboxamide], “+++ (“+++” means <3 uM)”. For `CC(C)COc1cc(F)cc(-c2ccc(C(=O)NS(=O)(=O)N3CCC(S(C)(=O)=O)C3)c(N3C[C@@H](C)CC3(C)C)n2)c1` (stereo partly drawn) [Compound 1560, 6-(3-fluoro-5-isobutoxy-phenyl)-N-(3-methylsulfonylpyrrolidin-1-yl)sulfonyl-2-[(4S)-2,2,4-trimethylpyrrolidin-1-yl]pyridine-3-carboxamide], the EC30 entry was “+++ (“+++” means <3 uM)”. To `Cc1cc(C)c(Oc2nc(C(C)(C)C)ccc2C(=O)N=S(N)(=O)c2cccc(N)n2)c(C)c1` (centres unmarked) [Compound 1602, N-[amino-(6-amino-2-pyridyl)-oxo-$1^6-sulfanylidene]-6-tert-butyl-2-(2,4,6-trimethylphenoxy)pyridine-3-carboxamide] belongs “+++ (“+++” means <3 uM)”; to `C=Cc1cc(C(=O)NS(=O)(=O)c2cccc(N)n2)c(N2C[C@@H](C)CC2(C)C)nc1C(C)(C)C` [Compound 1373, N-[(6-amino-2-pyridyl)sulfonyl]-6-tert-butyl-2-[(4S)-2,2,4-trimethylpyrrolidin-1-yl]-5-vinyl-pyridine-3-carboxamide], “+++ (“+++” means <3 uM)”; to `C[C@@H]1CN(c2ncc(F)cc2C(=O)NS(=O)(=O)c2cccc(N)n2)C(C)(C)C1` [Compound 1607, N-[(6-amino-2-pyridyl)sulfonyl]-5-fluoro-2-[(4S)-2,2,4-trimethylpyrrolidin-1-yl]pyridine-3-carboxamide], “++ (“++” means between 3 uM and 10 uM)”.

In the case of `CC(C)COc1cc(F)cc(-c2ccc(C(=O)NS(=O)(=O)c3ccn[nH]3)c(N3CCC(C)C(C)(C)C3)n2)c1` (centres unmarked) [Compound 1174, 6-(3-fluoro-5-isobutoxy-phenyl)-N-(1H-pyrazol-5-ylsulfonyl)-2-(3,3,4-trimethyl-1-piperidyl)pyridine-3-carboxamide], the EC30 entry is “+++ (“+++” means <3 uM)”. To `CC(C)Oc1cc(-c2ccc(C(=O)NS(=O)(=O)c3cccc(N)n3)c(N3C[C@@H](C)CC3(C)C)n2)cc(C(F)(F)F)c1` [Compound 1674, N-[(6-amino-2-pyridyl)sulfonyl]-6-[3-isopropoxy-5-(trifluoromethyl)phenyl]-2-[(4S)-2,2,4-trimethylpyrrolidin-1-yl]pyridine-3-carboxamide] belongs “+++ (“+++” means <3 uM)”; to `Cc1cc(OCC(C)C)cc(-c2ccc(C(=O)NS(=O)(=O)c3cccc(N)n3)c(N3C[C@@H](C)CC3(C)C)n2)c1` [Compound 1646, N-[(6-amino-2-pyridyl)sulfonyl]-6-(3-isobutoxy-5-methyl-phenyl)-2-[(4 S)-2,2,4-trimethylpyrrolidin-1-yl]pyridine-3-carboxamide], “+++ (“+++” means <3 uM)”; to `Cc1cc(C(=O)NS(=O)(=O)c2cccc(N)n2)c(N2CC(C)CC2(C)C)nc1-c1cc(F)cc(OCC(C)C)c1` (centres unmarked) [Compound 1269, N-[(6-amino-2-pyridyl)sulfonyl]-6-(3-fluoro-5-isobutoxy-phenyl)-5-methyl-2-(2,2,4-trimethylpyrrolidin-1-yl)pyridine-3-carboxamide], “+++ (“+++” means <3 uM)”. In the case of `Cc1cc(C)c(Oc2nc(-c3ccccc3)ccc2C(=O)NS(=O)(=O)c2cccc(NCCN(C)C)n2)c(C)c1` [Compound 1122, N-[[6-(2-dimethylaminoethylamino)-2-pyridyl]sulfonyl]-6-phenyl-2-(2,4,6-trimethylphenoxy)pyridine-3-carboxamide] it was “++ (“++” means between 3 uM and 10 uM)”. Take `Cc1cc(C)c(Oc2nc(-c3ccc(OC(C)C)nc3)ccc2C(=O)NS(=O)(=O)c2cccc(N)n2)c(C)c1` [Compound 1163, N-[(6-amino-2-pyridyl)sulfonyl]-6-(6-isopropoxy-3-pyridyl)-2-(2,4,6-trimethylphenoxy)pyridine-3-carboxamide]: the EC30 entry is “+++ (“+++” means <3 uM)”. To `CC(C)Oc1ccc(-c2ccc(C(=O)NS(=O)(=O)c3ccc(O)c(N)n3)c(N3[C@H](C)CC[C@@H]3C)n2)cn1` [Compound 1375, N-[(6-amino-5-hydroxy-2-pyridyl)sulfonyl]-2-[(2S,5R)-2,5-dimethylpyrrolidin-1-yl]-6-(6-isopropoxy-3-pyridyl)pyridine-3-carboxamide] belongs “++ (“++” means between 3 uM and 10 uM)”.

As to `CC(C)COc1cc(F)cc(-c2ccc(C(=O)NS(=O)(=O)N3CC[C@H](N)C3)c(N3C[C@@H](C)CC3(C)C)n2)c1` [Compound 1557, N-[(3S)-3-aminopyrrolidin-1-yl]sulfonyl-6-(3-fluoro-5-isobutoxy-phenyl)-2-[(4S)-2,2,4-trimethylpyrrolidin-1-yl]pyridine-3-carboxamide], the EC30 entry is “+++ (“+++” means <3 uM)”. In the case of `CCCC/C=C/c1cnc(N2CC(C)CC2(C)C)c(C(=O)NS(=O)(=O)c2cccc(N)n2)c1` (centres unmarked) [Compound 1916, N-[(6-amino-2-pyridyl)sulfonyl]-5-[(E)-hex-1-enyl]-2-(2,2,4-trimethylpyrrolidin-1-yl)pyridine-3-carboxamide] it was “+++ (“+++” means <3 uM)”.

In the case of `Cc1ccc(C)c(-c2ccc(C(=O)NS(=O)(=O)N3CC[C@H](N)C3)c(N3C[C@@H](C)CC3(C)C)n2)c1` [Compound 1736, N-[(3S)-3-aminopyrrolidin-1-yl]sulfonyl-6-(2,5-dimethylphenyl)-2-[(4S)-2,2,4-trimethylpyrrolidin-1-yl]pyridine-3-carboxamide], the EC30 result is “++ (“++” means between 3 uM and 10 uM)”. To `CCOc1cccc2c1CN(Cc1ccc(C(C)C)cc1)C2(C)C(=O)NS(=O)(=O)c1cccc(N)n1` (centres unmarked) [Compound 1576, N-[(6-amino-2-pyridyl)sulfonyl]-4-ethoxy-2-[(4-isopropylphenyl)methyl]-1-methyl-isoindoline-1-carboxamide] belongs “+++ (“+++” means <3 uM)”. In the case of `CC(C)C[C@@H](C)Nc1ccc(-c2ccc(C(=O)NS(=O)(=O)c3cccc(N)n3)c(N3[C@H](C)CC[C@@H]3C)n2)cn1` [Compound 1527, N-[(6-amino-2-pyridyl)sulfonyl]-6-[6-[[(1R)-1,3-dimethylbutyl]amino]-3-pyridyl]-2-[(2S,5R)-2,5-dimethylpyrrolidin-1-yl]pyridine-3-carboxamide] it was “+++ (“+++” means <3 uM)”.
